From patent US4272541A, “7,8 and 7-8 Substituted 4,5α-epoxymorphinan-6-one compounds, and methods of treating pain and drug dependence with them” (Miles Laboratories, Inc., priority 1979, dated 1981)

Legend:
[1] = system: Anti-Peristaltic Effects Of Morphine; experiment: Charcoal meal test, antagonist test (ability to antagonize the anti-peristaltic effects of morphine); assay type: in vivo, mice (albino females, CFW strain); details: for Percent Reversal (S.E.) Of Anti-Peristaltic Effects Of Morphine: morphine 8 mg/kg, naloxone 10 mg/kg = 100%; for antagonist properties: in words, charcoal meal tests
Method: (§1) The agonist and antagonist effects of TR-5088, reference compound TR-5128 and prior art compound 17-cyclopropylmethyl-4,5α-epoxy-3-hydroxymorphinan-6-one (TR-5118) were determined in mice by a modified procedure of Rodriguez and Villarreal (report on the 36th Annual Scientific Meeting Committee on the Problems of Drug Dependance, Mar. 10-14, 1974, Mexico City, D.F.).
(§2) Subjects and Procedure for Measuring Gastrointestinal Peristaltic Activity. The mice used were albino females of the CFW strain, weighing between 20 and 25 grams; ten animals per dose were used for each compound tested in each experiment except 20 animals were used in the tests of Compound 5088. Gastrointestinal peristaltic activity was measured using a modification of the charcoal meal method described by Macht and Baba-Gose (1931). Mice were deprived of food 18 hours before the administration of the charcoal meal. […] This meal consisted of an aqueous suspension of 5% powdered tragacanth and 5% animal charcoal and was freshly made for each experiment. The charcoal meal was administered by gastric intubation, 0.25 ml per mouse. The animals were sacrificed by cervical dislocation. After the sacrifice, the whole gastrointestinal tract was rapidly removed and freed of epiploon. Then the entire length of intestine was hung upon a small hook at the level of the pylorus. In order to standardize the tension of the intestine, a 5 g weight was hung at the level of the ileocecal valve. Gastrointestinal peristaltic activity was then determined by measuring the distance the charcoal traveled from the pylorus.
(§3) Drugs. Morphine hydrochloride, naloxone hydrochloride or test compounds were each dissolved in distilled water with their concentrations adjusted so that the volume of injection was 10 ml/kg. Doses are expressed in terms of the salts.
Determination of Ability of Test Compounds to Antagonize the Anti-Peristaltic Effects of Morphine (Antagonist test).
Morphine (8 mg/kg) was given s.c. at time 0, charcoal meal was given p.o. at time 15 min, naloxone or test compound was given s.c. at 30 min, and the animals were sacrificed at time 45 min. Naloxone is the standard of reference and its maximum effect (at 10 mg/kg) to antagonize the antiperistaltic effects of morphine is assigned the value of 100%; test compounds are expressed as % of maximum naloxone antagonism.

[2] = Gates and Montzka 1964; cited from earlier work
writhing = experiment: Acetic acid mouse writhing test (analgesic effects); assay type: in vivo, mice (male CD-1); details: for ED50: Mus musculus, sc, 0.25 h, mice, subcutaneous, acetic acid i.p. 15 minutes post drug, Table I, read-out: ED50
Method: (A) Analgesic effects upon mice (acetic acid writhing test).
TEST A. ACETIC ACID MOUSE WRITHING TEST
The analgesic effects of test compounds were determined in mice by use of the acetic acid writhing test described by B. J. R. Whittle, Brit. J. Pharmacol., 22:246 (1964). In this test at least three groups of five male CD-1 mice (18-22 g) each were given subcutaneous doses of the test drug dissolved in either distilled water or distilled water acidified with HCl depending on the solubility of the compound. In all cases, 0.4 milliliter of a 0.5% V/V acetic acid in distilled water solution was administered intraperitoneally 15 minutes post drug. The number of writhes in a 20 min. interval beginning 5 minutes after the acetic acid injection were determined and compared with the number of writhes in control groups which had received only acetic acid.
Percent inhibition of writhing was calculated as: [formula]
The ED50 dose, i.e., the dose required to reduce the number of writhes by 50%, was determined graphically from a plot of % inhibition as a probit versus log dose. Confidence limits of 95% were calculated on the basis of those results falling in the range 16-84% inhibition. See Litchfield, J. T. and Wilcoxon, F., J. Pharmacol. Exp. Ther., 96, 99-113, (1949).

Peristalsis = experiment: Charcoal meal test, agonist test (ability of test compound to directly inhibit peristalsis); assay type: in vivo, mice (albino females, CFW strain); details: for inhibition at 0.01 mg/kg / inhibition at 0.1 mg/kg / inhibition at 1 mg/kg / inhibition at 10 mg/kg / inhibition at 100 mg/kg: Mus musculus, sc, morphine 8 mg/kg = 100%, read-out: Percent Inhibition of Peristalsis; for inhibition at 0.01 mg/kg: 0.01 mg/kg s.c.; for inhibition at 0.1 mg/kg: 0.1 mg/kg s.c.; for inhibition at 1 mg/kg: 1.0 mg/kg s.c.; for inhibition at 10 mg/kg: 10.0 mg/kg s.c.; for inhibition at 100 mg/kg: 100.0 mg/kg s.c.; for inhibition of peristalsis / constipating side effect: in words, analysis of variance, comparison of compounds
Method: as §1, §2, §3
Morphine (8 mg/kg), test compound, or saline control was administered subcutaneously (s.c.), at time 0, the charcoal meal was administered by mouth (p.o.) at time 15 min, water (10 ml/kg) was administered s.c. at time 30 min, and the animals were sacrificed at time 45 min. The saline control value represents 0% inhibition and the morphine value represents 100% inhibition. All test compounds had values between saline and morphine, and results are expressed as % inhibition compared to morphine.
The data were subjected to analysis of variance. Also the Scheffe test, a statistical test that allows for multiple comparison, was performed.

morphine effect = experiment: Narcotic antagonist activity, modified rat tail flick test; assay type: in vivo, rats (male albino Wistar); details: Rattus norvegicus, ip; rats, test drug i.p. 10 minutes before ED80 dose of morphine s.c.; Table I; read-out: AD50 (the source's name)
Method: (B) Narcotic antagonist activity in rats (modified rat tail flick test).
TEST B. EVALUATION OF NARCOTIC ANTAGONIST ACTIVITY
The narcotic antagonist effects of test compounds were determined by a modification of the rat tail flick procedure of Harris and Pierson (J. Pharmacol. Exp. Ther. 143,141 [1964]).
Male albino Wistar rats (100-120 g) were used for this study. A rat's tail is so placed so as to cover a photocell. Heat is applied by a lamp in a reflector with a timer being connected to the lamp and photocell so that the timer goes on when the light is turned on and is turned off when the photocell is uncovered. A rheostat, incorporated into a heating lamp is used to adjust the intensity of the light falling on the tail of the rat such that the rat's control reaction time is from two to four seconds. Animals with a control reaction time outside this range are rejected. The rheostat adjustment is made only if a significant proportion (more than 2 out of every 10 rats) of the reaction times are outside the range of two to four seconds. Groups of five rats were used each time, and two control times were determined at 60 and 30 minutes prior to subcutaneous injection of the drug.
Thirty minutes after the last control run the test drug was given intraperitoneally. This was followed ten minutes later by an ED80 dose of morphine subcutaneously. The animals were retested at 20 minutes after the morphine injection. Control animals were given vehicle and morphine only. The data were calculated as follows: [formula]
The data were plotted on log-probit paper and AD50 values, i.e., the dose required to inhibit the morphine effect by 50% within 95% confidence limits, were determined by the method of Litchfield and Wilcoxon.

[3] = Telford et al. 1961; Yeh et al. 1976; cited from earlier work

| SMILES | Percent Reversal (S.E.) Of Anti-Peristaltic Effects Of Morphine ([1]; 0.01 mg/kg s.c.) | Percent Reversal (S.E.) Of Anti-Peristaltic Effects Of Morphine ([1]; 0.10 mg/kg s.c.) | Percent Reversal (S.E.) Of Anti-Peristaltic Effects Of Morphine ([1]; 1.0 mg/kg s.c.) | Percent Reversal (S.E.) Of Anti-Peristaltic Effects Of Morphine ([1]; 10.0 mg/kg s.c.) | Percent Reversal (S.E.) Of Anti-Peristaltic Effects Of Morphine ([1]; 3.1 mg/kg s.c.) | Percent Reversal (S.E.) Of Anti-Peristaltic Effects Of Morphine ([1]; 31.0 mg/kg s.c.) | antagonist properties [1] | ED50 (writhing) | inhibition at 0.01 mg/kg (Peristalsis) | inhibition at 0.1 mg/kg (Peristalsis) | inhibition at 1 mg/kg (Peristalsis) | inhibition at 10 mg/kg (Peristalsis) | inhibition at 100 mg/kg (Peristalsis) | ED50 (morphine effect) | other results |
| --- | --- | --- | --- | --- | --- | --- | --- | --- | --- | --- | --- | --- | --- | --- | --- |
| C=CCN1CC[C@]23c4c5ccc(O)c4O[C@H]2C(=O)CC[C@@]3(O)[C@H]1C5 [Naloxone] | 14.5(±3.0) % | 39.1(±4.2) % | 69.8(±8.0) % | 100.0(±5.9) % |  |  |  |  |  |  |  |  |  |  |  |
| O=C1CC[C@H]2[C@H]3Cc4ccc(O)c5c4[C@@]2(CCN3CC2CC2)[C@H]1O5 [TR-5118, 17-cyclopropylmethyl-4,5α-epoxy-3-hydroxymorphinan-6-one] |  |  |  |  | 56.6(±8.0) % | 69.3(±6.4) % | mixed agonist side effects and antagonist properties | 1.34 mg/kg | 24.7% | 25.4% | 40.8% | 44.8% | 47.1% | 0.19 mg/kg | narcotic antagonist activity [2]: had narcotic antagonist activity; inhibition of peristalsis / constipating side effect (Peristalsis): inhibit peristalsis to a statistically significantly less degree than TR-5128 |
| C=CCN1CC[C@]23c4c5ccc(OC)c4O[C@H]2C(=O)CC[C@H]3[C@H]1C5 [7,8-dihydro-N-allylnorcodeinone, 17-allyl-4,5α-epoxy-3-methoxymorphinan-6-one] |  |  |  |  |  |  |  |  |  |  |  |  |  |  | analgesic properties [3]: weak analgesic properties |
| O=C1CC[C@H]2[C@H]3Cc4ccc(O)c5c4[C@@]2(CCN3CC2CCC2)[C@H]1O5 [TR-5128, 17-Cyclobutylmethyl-4,5α-epoxy-3-hydroxymorphinan-6-one] | 0.0% | 8.3(±4.6) % | 13.5(±7.3) % | 19.1(±5.8) % |  | 20.4(±5.3) % | so low an antagonist ability as to be ineffective in the practical sense | 0.07 mg/kg | 17.5% | 35.6% | 50.7% | 76.3% | 84.2% | 1.7 mg/kg |  |
| C[C@H]1CC(=O)[C@@H]2Oc3c(O)ccc4c3[C@@]23CCN(CC2CCC2)[C@H](C4)[C@H]13.Cl [TR-5088, 17-Cyclobutylmethyl-4,5α-epoxy-3-hydroxy-8β-methylmorphinan-6-one Hydrochloride] |  |  |  |  | 54.6(±6.7) % | 44.7(±6.2) % | dramatically increased antagonist properties | 0.67 mg/kg | 13.5% | 39.8% | 50.7% | 54% | 63.5% | 1.9 mg/kg | Percent Reversal (S.E.) Of Anti-Peristaltic Effects Of Morphine ([1]; 0.031 mg/kg s.c.): 12.4(±5.8) %; Percent Reversal (S.E.) Of Anti-Peristaltic Effects Of Morphine ([1]; 0.31 mg/kg s.c.): 27.7(±7.3) %; analgesic activity (writhing; in words): especially effective analgesics; inhibition of peristalsis / constipating side effect (Peristalsis; Hydrochloride): inhibit peristalsis to a statistically significantly less degree than TR-5128; inhibition of peristalsis / constipating side effect (Peristalsis; listed as 17-cyclobutylmethyl-4,5α-epoxy-3-hydroxy-8β-methylmorphinan-6-one, Hydrochloride): less side effects |
